Measurements from the supplement of paper PMC10883282.
Counter-ions that a name gives are not always drawn. ± gives the standard deviation of the averaged measurements.

Tested on: VA-ES-BJ
Assay: relative viability vs DMSO control (72 h) (fraction); higher = more viable cells
Method in brief: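 Densities for seeding sarcoma cell lines into 384-well plates were set to give 80–90% confluence. After 24 h, 2.5 µl of serially diluted compound from source plates of 10 mM to 0.0002 mM went in, and plates stayed 72 h at 37 °C in 5% CO2 with 0.1% DMSO vehicle and a 5 µM positive control. Percent growth from ATPLite readings, averaged over up to triplicate wells, served as relative viability, rescaled so 1 means full and 0 means none.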

Row | SMILES | relative viability (0.00017 µM) | relative viability (0.00051 µM) | relative viability (0.00152 µM) | relative viability (0.00457 µM) | relative viability (0.01372 µM) | relative viability (0.04115 µM) | relative viability (0.1235 µM) | relative viability (0.3704 µM) | relative viability (1.111 µM) | relative viability (3.333 µM) | relative viability (10 µM)
1 | CC[C@H](Nc1ncnc2[nH]cnc12)c1nc2cccc(F)c2c(=O)n1-c1ccccc1 [Idelalisib] | 1.12 ± 0.01 | 1.12 ± 0.052 | 1.09 ± 0.015 | 1.09 ± 0.071 | 1.06 ± 0.03 | 1.07 ± 0.041 | 1.05 ± 0.026 | 1.03 ± 0.053 | 0.931 ± 0.041 | 0.872 ± 0.035 | 0.705 ± 0.038
2 | COc1cccc2c1C(=O)c1c(O)c3c(c(O)c1C2=O)C[C@@](O)(C(=O)CO)C[C@@H]3O[C@H]1C[C@H](N)[C@H](O)[C@H](C)O1 [Doxorubicin Hydrochloride] | 1.03 ± 0.017 | 1.06 ± 0.08 | 1.03 ± 0.05 | 0.99 ± 0.033 | 0.857 ± 0.064 | 0.629 ± 0.028 | 0.386 ± 0.016 | 0.164 ± 0.012 | 0.189 ± 0.0067 | 0.143 ± 0.035 | 0.126 ± 0.011
3 | Cc1ccc(NC(=O)c2ccc(CN3CCN(C)CC3)cc2)cc1Nc1nc(-c2cccnc2)cs1 [Masitinib] | 1.08 ± 0.016 | 1.078 ± 0.0055 | 1.05 ± 0.019 | 1.06 ± 0.033 | 1.08 ± 0.022 | 1.05 ± 0.013 | 1.02 ± 0.024 | 1.01 ± 0.038 | 0.897 ± 0.02 | 0.621 ± 0.016 | 0.177 ± 0.0072
4 | Cn1cnc2c(F)c(Nc3ccc(Br)cc3F)c(C(=O)NOCCO)cc21 [Binimetinib] | 1.06 ± 0.011 | 1.09 ± 0.032 | 1.07 ± 0.037 | 1.02 ± 0.028 | 1.02 ± 0.044 | 0.966 ± 0.027 | 0.946 ± 0.071 | 0.921 ± 0.069 | 0.879 ± 0.046 | 0.794 ± 0.041 | 0.689 ± 0.058
5 | CC(=O)Nc1cccc(-n2c(=O)n(C3CC3)c(=O)c3c(Nc4ccc(I)cc4F)n(C)c(=O)c(C)c32)c1 [Trametinib] | 1.08 ± 0.043 | 1.04 ± 0.026 | 1.02 ± 0.034 | 0.961 ± 0.038 | 0.871 ± 0.028 | 0.811 ± 0.032 | 0.738 ± 0.029 | 0.656 ± 0.022 | 0.628 ± 0.018 | 0.604 ± 0.019 | 0.572 ± 0.016
6 | Cc1cc(Nc2ncnc3ccc(NC4=NC(C)(C)CO4)cc23)ccc1Oc1ccn2ncnc2c1 [Tucatinib] | 1.09 ± 0.036 | 1.058 ± 0.0029 | 1.07 ± 0.032 | 1.04 ± 0.015 | 1.02 ± 0.02 | 1.03 ± 0.043 | 1.02 ± 0.089 | 1.01 ± 0.058 | 1.03 ± 0.023 | 1.03 ± 0.049 | 1.01 ± 0.023
7 | CCN1CCN(Cc2ccc(Nc3ncc(F)c(-c4cc(F)c5nc(C)n(C(C)C)c5c4)n3)nc2)CC1 [Abemaciclib] | 1.02 ± 0.014 | 1.03 ± 0.0088 | 1.015 ± 0.0082 | 1 ± 0.019 | 0.994 ± 0.037 | 0.92 ± 0.042 | 0.779 ± 0.032 | 0.694 ± 0.018 | 0.681 ± 0.023 | 0.562 ± 0.021 | 0.427 ± 0.056
8 | Cc1nc(-c2cn3c(n2)-c2ccc(-c4cnn(C(C)(C)C(N)=O)c4)cc2OCC3)n(C(C)C)n1 [Taselisib] | 1.01 ± 0.045 | 1.01 ± 0.03 | 1.02 ± 0.071 | 0.971 ± 0.048 | 0.943 ± 0.038 | 0.844 ± 0.039 | 0.75 ± 0.06 | 0.616 ± 0.056 | 0.379 ± 0.013 | 0.293 ± 0.028 | 0.144 ± 0.15
9 | C[C@@H]1COCCN1c1cc(-c2ccnn2C)c2ccnc(-c3ccn[nH]3)c2n1 | 1.02 ± 0.024 | 1.02 ± 0.03 | 1.01 ± 0.0075 | 1.05 ± 0.018 | 0.97 ± 0.07 | 0.739 ± 0.039 | 0.464 ± 0.038 | 0.212 ± 0.015 | 0.191 ± 0.0065 | 0.19 ± 0.015 | 0.173 ± 0.019
10 | CO[C@H]1C[C@@H]2CC[C@@H](C)[C@@](O)(O2)C(=O)C(=O)N2CCCC[C@H]2C(=O)O[C@H]([C@H](C)C[C@@H]2CC[C@@H](OP(C)(C)=O)[C@H](OC)C2)CC(=O)[C@H](C)/C=C(\C)[C@@H](O)[C@@H](OC)C(=O)[C@H](C)C[C@H](C)/C=C/C=C/C=C/1C [Ridaforolimus] | 0.97 ± 0.051 | 0.889 ± 0.031 | 0.664 ± 0.016 | 0.602 ± 0.03 | 0.538 ± 0.018 | 0.509 ± 0.025 | 0.487 ± 0.03 | 0.459 ± 0.0073 | 0.48 ± 0.014 | 0.458 ± 0.026 | 0.45 ± 0.0084
11 | CCc1cc2c(cc1N1CCC(N3CCOCC3)CC1)C(C)(C)c1[nH]c3cc(C#N)ccc3c1C2=O [Alectinib] | 1.03 ± 0.047 | 1.07 ± 0.042 | 1.04 ± 0.057 | 1.04 ± 0.027 | 1.02 ± 0.041 | 1.06 ± 0.048 | 1.04 ± 0.0046 | 0.891 ± 0.27 | 0.912 ± 0.26 | 0.941 ± 0.24 | 0.905 ± 0.25
12 | COCc1c(-c2cc3cc(C)cc(OC)c3s2)c2c(N)ncnn2c1CN1CCNC(=O)C1 [Rogaratinib] | 1.074 ± 0.0046 | 1.07 ± 0.037 | 1.05 ± 0.036 | 1.05 ± 0.021 | 1.06 ± 0.021 | 1.03 ± 0.042 | 1.04 ± 0.081 | 1.02 ± 0.075 | 1.02 ± 0.063 | 0.908 ± 0.087 | 0.568 ± 0.031
13 | C[C@@H]1CCN(C(=O)CC#N)C[C@@H]1N(C)c1ncnc2[nH]ccc12 [Tofacitinib] | 1.052 ± 0.0034 | 1.07 ± 0.014 | 1.02 ± 0.037 | 1.06 ± 0.039 | 1.02 ± 0.035 | 1.02 ± 0.026 | 1.01 ± 0.019 | 1.01 ± 0.017 | 1 ± 0.036 | 0.9697 ± 0.0069 | 0.931 ± 0.018
14 | O=C(Cc1ccc(-c2ccc(OCCN3CCOCC3)cc2)cn1)NCc1ccccc1 [KX2-391] | 1.09 ± 0.045 | 1.06 ± 0.043 | 1.06 ± 0.021 | 1.05 ± 0.044 | 0.96 ± 0.032 | 0.584 ± 0.026 | 0.385 ± 0.021 | 0.368 ± 0.021 | 0.314 ± 0.015 | 0.29 ± 0.017 | 0.309 ± 0.018
15 | C[C@@H](c1ccc2nccn2c1)n1nnc2ncc(-c3cnn(C)c3)nc21 [Volitinib] | 1.07 ± 0.067 | 1.07 ± 0.053 | 1.04 ± 0.062 | 1.02 ± 0.046 | 0.93 ± 0.043 | 0.868 ± 0.066 | 0.875 ± 0.03 | 0.879 ± 0.058 | 0.884 ± 0.048 | 0.873 ± 0.042 | 0.886 ± 0.048
16 | C[C@]1(O)C[C@@H](c2nc(-c3ccc4ccc(-c5ccccc5)nc4c3)c3c(N)nccn32)C1 [Linsitinib] | 1.08 ± 0.025 | 1.07 ± 0.04 | 1.05 ± 0.05 | 1.06 ± 0.011 | 1.01 ± 0.02 | 0.989 ± 0.021 | 0.987 ± 0.052 | 0.966 ± 0.042 | 0.937 ± 0.05 | 0.871 ± 0.11 | 0.74 ± 0.036
17 | COc1cc2c(Oc3ccc4[nH]c(C)cc4c3F)ncnc2cc1OCCCN1CCCC1 [Cediranib] | 1.05 ± 0.045 | 1.03 ± 0.055 | 1.04 ± 0.048 | 1.06 ± 0.038 | 1.04 ± 0.029 | 1.07 ± 0.067 | 1.09 ± 0.068 | 1.13 ± 0.065 | 1.15 ± 0.051 | 1.15 ± 0.022 | 1.13 ± 0.01
18 | CC(C)(C)c1cc(NC(=O)Nc2ccc(-c3cn4c(n3)sc3cc(OCCN5CCOCC5)ccc34)cc2)no1 [Quizartinib] | 1.06 ± 0.028 | 1.06 ± 0.038 | 1.05 ± 0.019 | 1.06 ± 0.032 | 1.05 ± 0.026 | 1.05 ± 0.038 | 1.02 ± 0.059 | 1.04 ± 0.03 | 1.02 ± 0.045 | 0.947 ± 0.022 | 0.831 ± 0.032
19 | COc1cc2/c(=N/c3ccc(Br)cc3F)nc[nH]c2cc1OCC1CCN(C)CC1 [Vandetanib] | 1.04 ± 0.044 | 1.04 ± 0.027 | 1.03 ± 0.043 | 1.05 ± 0.073 | 1.06 ± 0.022 | 1.1 ± 0.04 | 1.11 ± 0.029 | 1.11 ± 0.018 | 1.08 ± 0.02 | 0.93 ± 0.035 | 0.239 ± 0.0077
